# Where a name gives a salt, the structure may show the parent alone.
# Target: human KV7.2/KV7.3 (Homo sapiens (Human), UniProt O43525+O43526)
# Assay: Potassium flux assay (IPG-2 AM dye)
# Format: cell-based
# Conditions: TREX HEK 293 or HEK 293 cells expressing human KV7.2/KV7.3; arithmetic mean values
# Procedure, shortened: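 EC50 from 16 concentrations (2-fold dilutions, top 30 μM), scaled between DMSO baseline and a known KV7.x modulator maximum. Signal is IPG-2 AM fluorescence (ex 530/em 558 nm) after 10 mM KCl challenge buffer addition, following 20 min room-temperature compound exposure of HEK 293 or TREX HEK 293 cells stably expressing human KV7.2/KV7.3.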
row,SMILES,EC50
1,"O[C@@H]1CCC[C@H](Oc2ccc3c(Nc4ccc(Cl)nc4)nccc3c2)C1 (racemic) [Example 95, rac-(1R,3S)-3-((1-((6-chloropyridin-3-yl)amino)isoquinolin-6-yl)oxy)cyclohexan-1-ol]",< 1000 nM
2,"Cc1ncc(Nc2nccc3cc(OCC4(F)CC4)ccc23)cn1 [Example 189, 6-((1-fluorocyclopropyl)methoxy)-N-(2-methylpyrimidin-5-yl)isoquinolin-1-amine]",< 1000 nM
3,"Clc1ncc(Nc2nccc3cc(OCC4CC4)ccc23)cn1 [Example 9, N-(2-chloropyrimidin-5-yl)-6-(cyclopropylmethoxy)isoquinolin-1-amine]",< 1000 nM
4,"O[C@@H]1CCCC[C@@H]1Oc1ccc2c(Nc3ccc(Cl)nc3)nccc2c1 (relative stereo) [Example 142, cis-2-((1-((6-chloropyridin-3-yl)amino)isoquinolin-6-yl)oxy)cyclohexan-1-ol]",< 1000 nM
5,"CN(C)C(=O)/C=C/c1ccc2c(Nc3ccc(Cl)nc3)nccc2c1 [Example 246, (E)-3-(1-((6-chloropyridin-3-yl)amino)isoquinolin-6-yl)-N,N-dimethylacrylamide]",1000 to 10000 nM
6,"CNc1cc(Nc2nccc3cc(OCC4(C)COC4)ccc23)cnc1Cl [Example 162, 2-chloro-N^3-methyl-N^5-(6-((3-methyloxetan-3-yl)methoxy)isoquinolin-1-yl)pyridine-3,5-diamine]",< 1000 nM
7,"C[Si](C)(C)CCOCN(c1ccc(Cl)nc1)c1nccc2cc(F)ccc12 [Example 92, N-(6-chloropyridin-3-yl)-6-fluoro-N-((2-(trimethylsilyl)ethoxy)-methyl)isoquinolin-1-amine]",1000 to 10000 nM
8,"Clc1ccc(Nc2nccc3cc(Oc4cccnc4)ccc23)cn1 [Example 266, N-(6-chloropyridin-3-yl)-6-(pyridin-3-yloxy)isoquinolin-1-amine]",1000 to 10000 nM
9,"Cc1ncc(Nc2nccc3cc(OCc4cn[nH]c4)ccc23)cn1 [Example 395, 6-((1H-pyrazol-4-yl)methoxy)-N-(2-methylpyrimidin-5-yl)isoquinolin-1-amine]",1000 to 10000 nM
10,"Clc1ccc(Nc2nccc3cc(OC4CCC4)ccc23)cn1 [Example 411, N-(6-chloropyridin-3-yl)-6-cyclobutoxyisoquinolin-1-amine]",1000 to 10000 nM
11,"Clc1ccc(Nc2nccc3cc(OCCCc4cn[nH]c4)ccc23)cn1 [Example 260, 6-(3-(1H-pyrazol-4-yl)propoxy)-N-(6-chloropyridin-3-yl)isoquinolin-1-amine]",< 1000 nM
12,"FC1(F)CCCC(Oc2ccc3c(Nc4ccc(Cl)nc4)nccc3c2)C1 (stereo not shown) [Example 83, N-(6-chloropyridin-3-yl)-6-((3,3-difluorocyclohexyl)oxy)isoquinolin-1-amine]",1000 to 10000 nM
13,"Cc1ccc(Nc2nccc3cc(OCc4ccncc4)ccc23)cn1 [Example 200, N-(6-methylpyridin-3-yl)-6-(pyridin-4-ylmethoxy)isoquinolin-1-amine]",1000 to 10000 nM
14,"N#C[C@H]1CCC[C@H](Oc2ccc3c(Nc4ccc(Cl)nc4)nccc3c2)C1 [Example 342, (1 S,3S)-3-((1-((6-chloropyridin-3-yl)amino)isoquinolin-6-yl)oxy)cyclohexane-1-carbonitrile]",1000 to 10000 nM
15,"CC(Oc1ccc2c(Nc3ccc(Cl)nc3)nccc2c1)c1cnn(C)c1 (racemic) [Example 170, N-(6-chloropyridin-3-yl)-6-(1-(1-methyl-1H-pyrazol-4-yl)ethoxy)isoquinolin-1-amine]",< 1000 nM
16,"CN(c1cnc(Cl)nc1)c1nccc2cc(OCC3(F)CC3)ccc12 [Example 144, N-(2-chloropyrimidin-5-yl)-6-((1-fluorocyclopropyl)methoxy)-N-methylisoquinolin-1-amine]",≥ 30000 nM
17,"Clc1ncc(Nc2nccc3cc(OCc4ccncc4)ccc23)cn1 [Example 202, N-(2-chloropyrimidin-5-yl)-6-(pyridin-4-ylmethoxy)isoquinolin-1-amine]",< 1000 nM
18,"Cc1ncc(Nc2nccc3cc(OCC(F)F)ccc23)cn1 [Example 26, 6-(2,2-difluoroethoxy)-N-(2-methylpyrimidin-5-yl)isoquinolin-1-amine]",1000 to 10000 nM
19,"Clc1ncc(Nc2nccc3cc(OCc4cn[nH]c4)ccc23)cn1 [Example 381, 6-((1H-pyrazol-4-yl)methoxy)-N-(2-chloropyrimidin-5-yl)isoquinolin-1-amine]",< 1000 nM
20,"O[C@@H]1CCC[C@H](Oc2ccc3c(Nc4ccc(Cl)nc4)nccc3c2)C1 [Example 346, (1R,3S)-3-((1-((6-chloropyridin-3-yl)amino)isoquinolin-6-yl)oxy)cyclohexan-1-ol]",< 1000 nM
21,"Cc1cc2ccccc2c(Nc2ccc(Cl)nc2)n1 [Example 398, N-(6-chloropyridin-3-yl)-3-methylisoquinolin-1-amine]",≥ 30000 nM
22,"Clc1ccc(Nc2nccc3cc(OCc4ccccc4)ccc23)cn1 [Example 76, 6-(benzyloxy)-N-(6-chloropyridin-3-yl)isoquinolin-1-amine]",≥ 30000 nM
23,"Cc1ccc(Nc2nccc3cc(OCC4CC4)cnc23)cn1 [Example 256, 3-(cyclopropylmethoxy)-N-(6-methylpyridin-3-yl)-1,7-naphthyridin-8-amine]",1000 to 10000 nM
24,"Clc1ncc(Nc2nccc3cc(OC[C@H]4COCCO4)ccc23)cn1 [Example 382, (R)-6-((1,4-dioxan-2-yl)methoxy)-N-(2-chloropyrimidin-5-yl)isoquinolin-1-amine]",< 1000 nM
25,"Clc1ccc(Nc2nccc3cccnc23)cn1 [Example 31, N-(6-chloropyridin-3-yl)-1,7-naphthyridin-8-amine formate]",1000 to 10000 nM
26,"O[C@H]1CCC[C@@H](Oc2ccc3c(Nc4cnc(Cl)nc4)nccc3c2)C1 [Example 359, (1 S,3R)-3-((1-((2-chloropyrimidin-5-yl)amino)isoquinolin-6-yl)oxy)cyclohexan-1-ol]",< 1000 nM
27,"CC(C)C(C)(N)COc1ccc2c(Nc3ccc(Cl)nc3)nccc2c1 (stereo not shown) [Example 176, 6-(2-amino-2,3-dimethylbutoxy)-N-(6-chloropyridin-3-yl)isoquinolin-1-amine hydrochloride]",10000 to 30000 nM
28,"CC(C)(C)OC(=O)N[C@H]1CCC[C@@H](Oc2ccc3c(Nc4cnc(Cl)nc4)nccc3c2)C1 [Example 356, tert-butyl ((1S,3R)-3-((1-((2-chloropyrimidin-5-yl)amino)isoquinolin-6-yl)oxy)cyclohexyl)carbamate]",< 1000 nM
29,"COCCOc1ccc2c(Nc3cnc(C)nc3)nccc2c1 [Example 37, 6-(2-methoxyethoxy)-N-(2-methylpyrimidin-5-yl)isoquinolin-1-amine]",10000 to 30000 nM

# More lines, now with the values ahead:
row,EC50,SMILES
1,< 1000 nM,"Cn1cc(F)c(COc2ccc3c(Nc4ccc(Cl)nc4)nccc3c2)n1 [Example 397, N-(6-chloropyridin-3-yl)-6-((4-fluoro-1-methyl-1H-pyrazol-3-yl)methoxy)isoquinolin-1-amine formate]"
2,1000 to 10000 nM,"OCC(F)(F)COc1ccc2c(Nc3ccc(Cl)nc3)nccc2c1 [Example 155, 3-((1-((6-chloropyridin-3-yl)amino)isoquinolin-6-yl)oxy)-2,2-difluoropropan-1-ol]"
3,1000 to 10000 nM,"CC1CN(CCOc2ccc3c(Nc4ccc(Cl)nc4)nccc3c2)CCO1 (stereo not shown) [Example 323, N-(6-chloropyridin-3-yl)-6-(2-(2-methylmorpholino)ethoxy)isoquinolin-1-amine]"
4,< 1000 nM,"COCC1(COc2ccc3c(Nc4ccc(Cl)nc4)nccc3c2)COC1 [Example 306, N-(6-chloropyridin-3-yl)-6-((3-(methoxymethyl)oxetan-3-yl)methoxy)isoquinolin-1-amine]"
5,< 1000 nM,"CC(Oc1ccc2c(Nc3ccc(Cl)nc3)nccc2c1)C1(F)CC1 (stereo not shown) [Example 91, N-(6-chloropyridin-3-yl)-6-(1-(1-fluorocyclopropyl)ethoxy)isoquinolin-1-amine]"
6,< 1000 nM,"N#CC1(COc2ccc3c(Nc4ccc(Cl)nc4)nccc3c2)CC(F)(F)C1 [Example 234, 1-(((1-((6-chloropyridin-3-yl)amino)isoquinolin-6-yl)oxy)methyl)-3,3-difluorocyclobutane-1-carbonitrile]"
7,1000 to 10000 nM,"O=C1OCCN1CCOc1ccc2c(Nc3ccc(Cl)nc3)nccc2c1 [Example 107, 3-(2-((1-((6-chloropyridin-3-yl)amino)isoquinolin-6-yl)oxy)ethyl)oxazolidin-2-one]"
8,1000 to 10000 nM,"CS(=O)(=O)CCCOc1ccc2c(Nc3ccc(Cl)nc3)nccc2c1 [Example 191, N-(6-chloropyridin-3-yl)-6-(3-(methylsulfonyl)propoxy)isoquinolin-1-amine]"
9,< 1000 nM,"CC1(C)OCC(COc2ccc3c(Nc4ccc(Cl)nc4)nccc3c2)O1 (stereo not shown) [Example 299, N-(6-chloropyridin-3-yl)-6-((2,2-dimethyl-1,3-dioxolan-4-yl)methoxy)isoquinolin-1-amine]"
10,10000 to 30000 nM,"FC1(COc2ccc3c(Nc4ccc(Cl)nc4)nccc3c2)CNC1 [Example 59, N-(6-chloropyridin-3-yl)-6-((3-fluoroazetidin-3-yl)methoxy)isoquinolin-1-amine hydrochloride]"
11,< 1000 nM,"O=S1(=O)CC(COc2ccc3c(Nc4ccc(Cl)nc4)nccc3c2)C1 [Example 300, 3-(((1-((6-chloropyridin-3-yl)amino)isoquinolin-6-yl)oxy)methyl)thietane 1,1-dioxide]"
12,< 1000 nM,"CC1(COc2ccc3c(Nc4ccc(Cl)nc4)nccc3c2)COC1 [Example 210, N-(6-chloropyridin-3-yl)-6-((3-methyloxetan-3-yl)methoxy)isoquinolin-1-amine]"
13,< 1000 nM,"COc1nn(C)cc1COc1ccc2c(Nc3ccc(Cl)nc3)nccc2c1 [Example 166, N-(6-chloropyridin-3-yl)-6-((3-methoxy-1-methyl-1H-pyrazol-4-yl)methoxy)isoquinolin-1-amine]"
14,< 1000 nM,"N#CCC1(COc2ccc3c(Nc4ccc(Cl)nc4)nccc3c2)COC1 [Example 134, 2-(3-(((1-((6-chloropyridin-3-yl)amino)isoquinolin-6-yl)oxy)methyl)oxetan-3-yl)acetonitrile]"
